In article PMC7588595, “Small-molecule active pharmaceutical ingredients of approved cancer therapeutics inhibit human aspartate/asparagine-β-hydroxylase” (Bioorganic & Medicinal Chemistry, 2020):
Read-outs that look alike come from different tables or passages of the source.

How the values were obtained:
His6-AspH315–758 = target: T1, His6-AspH315–758 (Homo sapiens, UniProt Q12797); assay: AspH differential scanning fluorimetry (DSF) assay, melting temperature shift; format: binding; details: 40 μM inhibitor, 4 μM His6-AspH315–758, with respect to DMSO controls; for ΔTm at 40 µM: read-out: Tm-shift (ΔTm) of AspH
T1 construct: A mixture of SYPRO orange (1‰v/v) and His6-AspH315–758 (4 μM) in 50 mM aqueous HEPES buffer; made in house; host or cells: Escherichia coli BL21 (DE3), pET-28a(+) vector
T1 sequence (Q12797 315-758): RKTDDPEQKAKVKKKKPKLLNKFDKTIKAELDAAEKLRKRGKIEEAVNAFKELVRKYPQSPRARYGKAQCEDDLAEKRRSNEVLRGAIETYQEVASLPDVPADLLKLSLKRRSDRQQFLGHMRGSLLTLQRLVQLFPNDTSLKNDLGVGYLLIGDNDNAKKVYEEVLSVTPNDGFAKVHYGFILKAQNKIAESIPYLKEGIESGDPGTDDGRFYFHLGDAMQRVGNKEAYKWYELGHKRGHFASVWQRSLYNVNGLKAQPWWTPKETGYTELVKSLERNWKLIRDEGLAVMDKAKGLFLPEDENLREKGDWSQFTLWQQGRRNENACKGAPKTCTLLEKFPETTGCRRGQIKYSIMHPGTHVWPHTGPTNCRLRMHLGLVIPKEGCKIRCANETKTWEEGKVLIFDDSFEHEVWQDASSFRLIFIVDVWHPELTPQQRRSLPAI
Protocol: A mixture of SYPRO orange (1‰v/v) and His6-AspH315–758 (4 μM) in 50 mM aqueous HEPES buffer (pH 7.5, 150 mM NaCl, 50 μM NiCl2) was carefully pipetted into a 96-well VWR PCR-plate (38 μL per well). An inhibitor solution (0.8 mM in DMSO) or a negative control sample (pure DMSO) was added to each well (2 μL per well, final inhibitor concentration of 40 μM) and the resulting solutions were gently mixed using a pipette. The plate was sealed with optical tape (Bio-Rag, iCycler iQ), centrifuged (5 sec, 1000 rpm) and placed into a C1000Touch Thermal Cycler equipped with a CFX96 Real-Time System (Bio-Rad). The instrument was heated with a rate of 1 °C per cycle (starting at an initial temperature of 25 °C; 70 cycles total). Data were analyzed using Microsoft Excel and GraphPad Prism according to the literature.[107] DSF assays were performed in independent duplicates, each composed of technical duplicates (Supporting Fig. S4).

[1] = target: T2, human AspH (His6-AspH315–758) (Homo sapiens, UniProt Q12797); assay: SPE-MS AspH inhibition assay (hFX-CP101-119 substrate hydroxylation); format: biochemical; details: for inhibition at 20 µM / AspH inhibition at 20 μM: 20 μM fixed inhibitor, relative to DMSO and 2,4-PDCA controls; for Hill coefficient of AspH inhibition curves: dose-response curves of SPE-MS AspH inhibition assay; for remaining activity at 20 µM: 20 μM fixed inhibitor concentration
T2 construct: N-Terminally His6-tagged human AspH315–758 (His6-AspH315–758) was produced in Escherichia coli BL21 (DE3) cells; made in house; host or cells: Escherichia coli BL21 (DE3), pET-28a(+) vector
T2 sequence (Q12797 315-758): T1 sequence (Q12797 315-758)

Bcl-XL = details: fluorescence polarisation, 30 nM enzyme concentration; cited from earlier work
[2] = 50 nM His6-AspH315–758, 1 μM hFX-CP101–119, 100 μM LAA, 3 μM 2OG, 2 μM FAS, 50 mM HEPES pH 7.5, 20 °C, read-out: IC50
[3] = 50 nM His6-AspH315–758, 1 μM hFX-CP101–119, 100 μM LAA, 3 μM 2OG, 2 μM FAS, 50 mM HEPES pH 7.5, 20 °C
[4] = read-out: IC50 at 10 μM substrate, 10 μM hFX-CP101–119 and 10 μM 2OG instead of 1 μM hFX-CP101–119 and 3 μM 2OG
[5] = read-out: IC50 at 200 μM 2OG, 200 μM 2OG instead of 3 μM 2OG
[6] = read-out: IC50 at 20 μM Fe(II), 20 μM Fe(II) instead of 2 μM Fe(II)

Compound: O=C(O)c1ccnc(C(=O)O)c1 [2,4-PDCA, Pyridine-2,4-dicarboxylic acid, reference compound]
- ΔTm at 40 µM (His6-AspH315–758): 3.2 ± 0.4 °C
- IC50 [1, 2]: 20 ± 10 nM
- inhibition at 20 µM [1, 3]: 100 ± 0.6%
- IC50 [1, 4]: 20 ± 10 nM
- IC50 [1, 5]: 100 ± 30 nM

Compound: Cc1cc2c(C(C)C)c(O)c(O)c(C=O)c2c(O)c1-c1c(C)cc2c(C(C)C)c(O)c(O)c(C=O)c2c1O [(R)-Gossypol, reference compound]
- IC50 (Bcl-XL): ~500 nM
- IC50 [1, 2]: 250 ± 10 nM
- AspH inhibition at 20 μM [1, 3]: Complete suppression of AspH activity
- inhibition at 20 µM [1, 3]: 101 ± 2.3%
- IC50 [1, 4]: 330 ± 20 nM
- IC50 [1, 6]: 260 ± 30 nM
- IC50 [1, 5]: 250 ± 10 nM

Compound: CN(C)CC[C@H](CSc1ccccc1)Nc1ccc(S(=O)(=O)NC(=O)c2ccc(N3CCN(Cc4ccccc4-c4ccc(Cl)cc4)CC3)cc2)cc1[N+](=O)[O-] [ABT-737, reference compound]
- ΔTm at 40 µM (His6-AspH315–758): 1.5 ± 0.1 °C
- IC50 [1, 2]: 3380 ± 340 nM
- IC50 [1, 4]: 2990 ± 350 nM
- IC50 [1, 6]: 2920 ± 880 nM
- IC50 [1, 5]: 4470 ± 1320 nM

Compound: O=C(/C=C/c1cccc(S(=O)(=O)Nc2ccccc2)c1)NO [Belinostat, reference compound]
- ΔTm at 40 µM (His6-AspH315–758): 0.1 ± 0.2 °C
- IC50 [1, 2]: 7490 ± 1260 nM
- AspH inhibition at 20 μM [1, 3]: 97.1 ± 0.2%
- inhibition at 20 µM [1, 3]: > 90%
- Hill coefficient of AspH inhibition curves [1]: < -2.0
- IC50 [1, 4]: 4770 ± 100 nM
- IC50 [1, 6]: 3100 ± 1440 nM
- IC50 [1, 5]: 11200 ± 4000 nM

Compound: CC1(C)CCC(c2ccc(Cl)cc2)=C(CN2CCN(c3ccc(C(=O)NS(=O)(=O)c4ccc(N[C@H](CCN5CCOCC5)CSc5ccccc5)c(S(=O)(=O)C(F)(F)F)c4)cc3)CC2)C1 [Navitoclax, reference compound]
- ΔTm at 40 µM (His6-AspH315–758): -2.1 ± 0.3 °C
- IC50 ([1]; 50 nM His6-AspH315–758, 1 μM hFX-CP101–119, 100 μM LAA, 3 μM 2OG, 2 μM FAS, 50 mM HEPES pH 7.5, 20 °C, listed as navitoclax, read-out: IC50): ~1000 nM
- IC50 [1, 2]: 1030 ± 120 nM
- remaining activity at 20 µM [1]: ~10%
- inhibition at 20 µM [1, 3]: 90.1 ± 0.1%
- IC50 [1, 4]: 1210 ± 40 nM
- IC50 [1, 6]: 800 ± 420 nM
- IC50 [1, 5]: 1330 ± 170 nM

Compound: CC1(C)CCC(CN2CCN(c3ccc(C(=O)NS(=O)(=O)c4ccc(NCC5CCOCC5)c([N+](=O)[O-])c4)c(Oc4cnc5[nH]ccc5c4)c3)CC2)=C(c2ccc(Cl)cc2)C1 [Venetoclax, reference compound]
- ΔTm at 40 µM (His6-AspH315–758): 0.7 ± 0.3 °C
- IC50 ([1]; 50 nM His6-AspH315–758, 1 μM hFX-CP101–119, 100 μM LAA, 3 μM 2OG, 2 μM FAS, 50 mM HEPES pH 7.5, 20 °C, listed as venetoclax, read-out: IC50): ~1400 nM
- IC50 [1, 2]: 1400 ± 140 nM
- remaining activity at 20 µM [1]: ~3%
- inhibition at 20 µM [1, 3]: 97.2 ± 0.2%
- Plate 1 (% inhibition) ([1]; AspH-inhibitor screening, 384-well Plate 1): 97.05%
- Plate 1 (% conversion) ([1]; AspH-inhibitor screening, 384-well Plate 1, substrate conversion): 4.94%
- Plate 1-duplicate (% inhibition) ([1]; AspH-inhibitor screening, Plate 1-duplicate): 97.31%
- Plate 1-duplicate (% conversion) ([1]; AspH-inhibitor screening, Plate 1-duplicate, substrate conversion): 3.78%
- selectivity for Bcl-2 over AspH ([1]; Bcl-2 inhibited more efficiently than AspH): ~ 1000 fold
- Hill coefficient of AspH inhibition curves [1]: < -2.0
- IC50 [1, 4]: 1570 ± 210 nM
- IC50 [1, 6]: 1290 ± 240 nM
- IC50 [1, 5]: 1520 ± 240 nM

Compound: Mithramycin A [reference compound]
- Tm-shift (ΔTm) of AspH (His6-AspH315–758): 0.4 ± 0.2 °C
